In patent US10196357B2, “Biaryl compositions and methods for modulating a kinase cascade” (Athenex, Inc., priority 2007, dated 2019):

Experiments:
Fyn(h) = Fyn(h) (Homo sapiens, UniProt P06241); experiment: isolated kinase activity, Fyn; assay type: biochemical; settings: compound @ 10 μM
Text: (§1) Table 8 illustrates percent activity of isolated kinases in the presence of the AstraZeneca ATP-competitive inhibitor (KX2-328, AZ-28) or KX2-391 relative to control (untreated) isolated kinases.

[1] = test system: total phosphotyrosine levels; experiment: total phosphotyrosine levels; assay type: cell-based; settings: HT29 and c-Src527F/NIH-3T3 cells
Method: (§2) HT29 (colon cancer) and c-Src527F/NIH-3T3 (Src transformed) cell lines were treated with KX2-391 or with AstraZeneca's ATP competitive Src inhibitor AZ28. AZ28 serves as a positive comparator to show what a validated Src inhibitor should do in these assays. After treatment with compound, cells were lysed, subjected to PAGE and probed with a battery of antibodies. […] In addition, off-target protein phosphorylation was also investigated. Further, induction of apoptosis was evaluated via Caspase 3 cleavage. Multiple doses of each compound were tested because the trends in response to increasing drug concentration are the most reliable indicator of activity.
(§3) The same range of multiples of the GI50 for AZ28 in these two cell lines was run as a comparison.

EGFR(h) = EGFR(h) (Homo sapiens, UniProt P00533); experiment: isolated kinase activity, EGFR; assay type: biochemical; settings: compound @ 10 μM
EGFR(h), sequence (P00533 25-1210): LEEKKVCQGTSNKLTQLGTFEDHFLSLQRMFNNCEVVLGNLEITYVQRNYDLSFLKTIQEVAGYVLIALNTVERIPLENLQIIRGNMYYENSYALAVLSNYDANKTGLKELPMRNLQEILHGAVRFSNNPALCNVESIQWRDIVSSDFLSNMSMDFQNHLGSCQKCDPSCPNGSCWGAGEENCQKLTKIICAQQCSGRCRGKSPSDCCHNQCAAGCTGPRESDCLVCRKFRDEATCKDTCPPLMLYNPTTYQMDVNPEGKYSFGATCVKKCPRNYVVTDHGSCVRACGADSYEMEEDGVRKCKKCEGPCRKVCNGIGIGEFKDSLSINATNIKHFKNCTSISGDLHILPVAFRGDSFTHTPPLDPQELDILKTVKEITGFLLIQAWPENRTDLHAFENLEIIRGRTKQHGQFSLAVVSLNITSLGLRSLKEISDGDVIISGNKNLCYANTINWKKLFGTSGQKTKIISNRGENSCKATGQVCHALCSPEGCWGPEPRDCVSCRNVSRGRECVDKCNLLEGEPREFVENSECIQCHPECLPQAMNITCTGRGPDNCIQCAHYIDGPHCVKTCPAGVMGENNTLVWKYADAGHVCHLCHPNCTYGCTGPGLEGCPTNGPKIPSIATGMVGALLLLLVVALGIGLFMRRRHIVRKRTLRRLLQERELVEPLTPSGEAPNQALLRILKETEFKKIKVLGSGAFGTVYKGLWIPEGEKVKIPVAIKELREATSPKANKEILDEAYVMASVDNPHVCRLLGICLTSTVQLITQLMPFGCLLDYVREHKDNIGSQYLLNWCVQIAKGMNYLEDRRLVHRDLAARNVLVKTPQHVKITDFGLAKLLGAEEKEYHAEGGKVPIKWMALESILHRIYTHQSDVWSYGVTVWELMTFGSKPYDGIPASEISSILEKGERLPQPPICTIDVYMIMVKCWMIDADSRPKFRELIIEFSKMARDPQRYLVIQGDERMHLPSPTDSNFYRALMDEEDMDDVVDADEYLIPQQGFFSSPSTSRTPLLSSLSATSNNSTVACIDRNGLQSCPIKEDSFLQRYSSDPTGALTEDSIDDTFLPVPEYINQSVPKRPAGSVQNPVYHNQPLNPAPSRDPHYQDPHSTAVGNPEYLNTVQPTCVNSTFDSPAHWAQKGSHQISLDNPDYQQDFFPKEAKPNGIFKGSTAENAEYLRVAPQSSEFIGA
Text: as §1

CHK1(h) = CHK1(h) (Homo sapiens, UniProt O14757); experiment: isolated kinase activity, CHK1; assay type: biochemical; settings: compound @ 10 μM
CHK1(h), sequence (O14757 whole entry): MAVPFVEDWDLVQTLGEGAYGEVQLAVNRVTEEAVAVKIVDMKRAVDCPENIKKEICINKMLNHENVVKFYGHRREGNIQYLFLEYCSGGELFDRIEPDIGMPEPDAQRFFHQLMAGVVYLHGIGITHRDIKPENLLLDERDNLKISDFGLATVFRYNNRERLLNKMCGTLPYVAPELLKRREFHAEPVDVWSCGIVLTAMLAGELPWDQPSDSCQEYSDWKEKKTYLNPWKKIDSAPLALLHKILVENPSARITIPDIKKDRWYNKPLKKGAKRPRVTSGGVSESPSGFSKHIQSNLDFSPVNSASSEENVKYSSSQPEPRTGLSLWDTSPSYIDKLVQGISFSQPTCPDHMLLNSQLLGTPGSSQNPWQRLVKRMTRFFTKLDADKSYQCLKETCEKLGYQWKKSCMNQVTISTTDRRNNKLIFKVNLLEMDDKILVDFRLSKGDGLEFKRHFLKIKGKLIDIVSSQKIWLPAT
Text: as §1

Paxillin Y-31 = experiment: intracellular phosphorylation, Paxillin Y-31; assay type: cell-based; settings: c-Src527F/NIH-3T3 cells
Method: as §2, §3

Daoy = experiment: brain tumor cell growth inhibition, Daoy; assay type: cell-based, Human; settings: desmoplastic cerebellar medulloblastoma, read-out: IC50 (title: GI50)
[2] = test system: Ba/F3 + BCR-Abl T315I mutant; experiment: MTT growth inhibition, Ba/F3 + BCR-Abl T315I; assay type: cell-based; settings: 96 hrs
Text: (§4) Cultures of Ba/F3 cells were also transfected to express wild-type (WT) Bcr-Abl, E255K mutation of Bcr-Abl, or T315I mutation of Bcr-Abl and cultured in 96-well plates in complete media without IL-3. The Ba/F3 cell line is rendered Gleevec resistant when the mutation in the Bcr/Abl tyrosine kinase […] is present. […] All assays are in triplicate.

U87 = experiment: brain tumor cell growth inhibition, U87; assay type: cell-based, Human; settings: U87, glioblastoma; astrocytoma; read-out: IC50 (title: GI50)
[3] = test system: EGFR tyrosine kinase autophosphorylation; experiment: EGFR tyrosine kinase autophosphorylation in cells; assay type: cell-based; settings: tumor cells, FIG. 9, EGF Y845
Method: as §2, §3
This site is not a direct Src phosphorylation site.

[4] = test system: MOLT-4 (Adult lymphoblastic leukemia); experiment: growth inhibition, MOLT-4; assay type: cell-based, Human
SW1088 = experiment: brain tumor cell growth inhibition, SW1088; assay type: cell-based, Human; settings: SW1088, astrocytoma; read-out: IC50 (title: GI50)
[5] = test system: HT29 (human colon cancer); settings: KXO1 2.0 and 4 mg/kg bid vs Dasatinib 25 then 15 mg/kg bid, 28 days
PC3-MM2 (Prostate) = experiment: growth inhibition, PC3-MM2; assay type: cell-based, Human; settings: PC3-MM2 (Prostate) cells
[6] = test system: Ba/F3 + BCR-Abl E225K mutant; experiment: MTT growth inhibition, Ba/F3 + BCR-Abl E225K; assay type: cell-based; settings: 96 hrs
Text: as §4

H226 = experiment: MTT growth inhibition, Dasatinib-resistant H226; assay type: cell-based, human; settings: H226, 8.0×10^3 cells/well, […] FBS, 78 Hr
Method: (§5) Cell proliferation/growth inhibition was assessed using MTT colorimetric assay.
(§6) On Day 3, 10 μL MTT (5 mg/mL) was added to each well. Cells were then incubated in the presence of MTT for 4 hours at 37° C., appropriate CO2 conditions. After this incubation period, 90 μL 10% SDS(+HCl) was added to each well to lyse cells and solubilize formazan. Cells were then incubated overnight at 37° C., appropriate CO2 conditions.
(§7) The OD570 was measured using microplate reader. Growth inhibition curves and EC50/IC50 was determined using GraphPad Prism 4 statistical software.

[7] = test system: K562R (Gleevec resistant CML); experiment: growth inhibition, K562R; assay type: cell-based, Human
Caki-2 = experiment: renal tumor cell growth inhibition, Caki-2; assay type: cell-based, Human; settings: Caki-2, clear cell carcinoma
Method: These GI50s were determined using standard tumor growth inhibition assays, similar to those described in detail in this Example 7.

H460 = experiment: MTT growth inhibition, Dasatinib-resistant H460; settings: H460, 8.0×10^3 cells/well, […] FBS, 78 Hr
Method: as §5, §6, §7

COLO-320DM = experiment: MTT growth inhibition, Dasatinib-resistant COLO-320DM; assay type: cell-based, human; settings: 8.0×10^3 cells/well, […] FBS, 78 Hr
Method: as §5, §6, §7

Fyn(h), sequence (P06241 whole entry): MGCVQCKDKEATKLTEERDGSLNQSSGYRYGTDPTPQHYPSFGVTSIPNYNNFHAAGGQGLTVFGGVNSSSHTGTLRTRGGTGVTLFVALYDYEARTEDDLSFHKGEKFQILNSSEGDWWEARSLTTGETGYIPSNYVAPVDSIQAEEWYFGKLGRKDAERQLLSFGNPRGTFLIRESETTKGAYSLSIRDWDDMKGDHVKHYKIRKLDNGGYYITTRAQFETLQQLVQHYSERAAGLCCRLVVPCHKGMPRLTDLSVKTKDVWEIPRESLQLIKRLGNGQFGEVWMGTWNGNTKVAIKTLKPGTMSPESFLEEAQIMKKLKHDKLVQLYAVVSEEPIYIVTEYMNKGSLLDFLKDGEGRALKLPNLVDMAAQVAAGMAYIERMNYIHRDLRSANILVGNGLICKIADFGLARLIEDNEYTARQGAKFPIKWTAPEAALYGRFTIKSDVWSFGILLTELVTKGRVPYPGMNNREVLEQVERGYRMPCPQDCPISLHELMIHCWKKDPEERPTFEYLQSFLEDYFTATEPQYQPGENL

Q: Which “percent activity of isolated kinase relative to control” value (Fyn(h)) does the source give for O=C(Cc1ccc(-c2ccc(OCCN3CCOCC3)cc2)cn1)NCc1ccccc1 [KX2-391] here?
A: 85%

Q: What about the total phosphotyrosine levels [1] of the same molecule?
A: reduction in the total phosphotyrosine levels

Q: What about the “percent activity of isolated kinase relative to control” value (EGFR(h)) of the same molecule?
A: 134%

Q: What about the “percent activity of isolated kinase relative to control” value (CHK1(h)) of the same molecule?
A: 105%

Q: And the “phosphorylation of Paxillin Y-31 (Src transphosphorylation)” value (Paxillin Y-31)?
A: inhibited

Q: For O=C(Cc1ccc(-c2ccc(OCCN3CCOCC3)cc2)cn1)NCc1ccccc1 [KXO1], which IC50 (Daoy) is on record?
A: 13.6 nM

Q: And the GI50 [2]?
A: 35 nM

Q: What about the IC50 (U87) of the same molecule?
A: 33.1 nM

Q: What about the “EGFR tyrosine kinase autophosphorylation” value [3] of the same molecule?
A: not inhibited

Q: And the “EGFR tyrosine kinase autophosphorylation” value ([3]; listed as KX-391)?
A: less active

Q: What about the GI50 [4] of the same molecule?
A: 13 nM

Q: What about the IC50 (SW1088) of the same molecule?
A: 76.1 nM

Q: And the “oral potency in staged HT29 mouse xenografts” value [5]?
A: higher oral potency

Q: And the GI50 (PC3-MM2 (Prostate))?
A: 8.9 nM

Q: What about the GI50 [6] of the same molecule?
A: 80 nM

Q: What about the IC50 (H226) of the same molecule?
A: 98 nM

Q: What about the IC80 (H226) of the same molecule?
A: 277 nM

Q: What about the IC90 (H226) of the same molecule?
A: 490 nM

Q: What about the GI50 [7] of the same molecule?
A: 0.64 nM

Q: What about the GI50 (Caki-2) of the same molecule?
A: 39.2 nM

Q: What about the IC50 (H460) of the same molecule?
A: 51 nM

Q: What about the IC80 (H460) of the same molecule?
A: 105 nM

Q: And the IC90 (H460)?
A: 162 nM

Q: And the IC50 (COLO-320DM)?
A: 30 nM

Q: And the IC80 (COLO-320DM)?
A: 80 nM

Q: What about the IC90 (COLO-320DM) of the same molecule?
A: 144 nM
